Tests used:
SINV 6K = SINV 6K (Sindbis virus, UniProt P03316); assay: UV-Vis absorption of retained compound after overnight dialysis; format: binding; settings: 3-4x molar excess compound, 1 h on ice, pH 7.6, 0.015% DDM; EGFP negative control
SARS-CoV-2 E = SARS-CoV-2 E (Severe acute respiratory syndrome coronavirus 2, UniProt P0DTC4); format: binding
SARS-CoV-2 E, sequence (P0DTC4 whole entry): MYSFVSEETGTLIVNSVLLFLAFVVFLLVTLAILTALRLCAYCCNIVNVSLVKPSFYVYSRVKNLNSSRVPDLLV

SINV 6K, sequence (P03316 752-806): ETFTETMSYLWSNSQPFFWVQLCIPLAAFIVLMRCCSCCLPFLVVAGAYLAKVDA

Compound	UV-Vis absorption of retained compound after overnight dialysis (SINV 6K)	UV-Vis absorption of retained compound after overnight dialysis (SARS-CoV-2 E)
N=C(N)NC(=O)c1nc(Cl)c(N2CCCCCC2)nc1N [HMA]	Both 6K (Fig. 2B) and E (Fig. 2C) proteins bind to the compounds	Both 6K (Fig. 2B) and E (Fig. 2C) proteins bind to the compounds
CCN(c1nc(N)c(C(=O)N=C(N)N)nc1Cl)C(C)C [EIPA]	Both 6K (Fig. 2B) and E (Fig. 2C) proteins bind to the compounds	Both 6K (Fig. 2B) and E (Fig. 2C) proteins bind to the compounds
